Source: PMC8672774, “Discovery of cell active macrocyclic peptides with on-target inhibition of KRAS signaling” (Chemical Science, 2021)
Numbered stars: 1 amine (or outer) side, 2 acyl side, 3 side chain; on linkers, the order of the positions; unused ones are H or OH. Bridge positions count the residues as written; N and C are the ends. Square brackets hold non-standard residues; d marks the D form. Peptide text beside a SMILES is read from it. CH2 = C([*:1])[*:2]

Experiments:
GDP-loaded KRAS^G12D = target: T1, GDP-loaded KRAS^G12D (Homo sapiens, UniProt P01116, G12D); experiment: TR-FRET competitive binding assay using KRAS G12D loaded with GDP; conditions: competition with 500 nM FAM-labeled tracer; relative binding, EC50 right-shifted compared to KD
T1 construct: (AAs 1 to 169 plus a 4xGly motif appended to the N-; His-SUMO (N, cleaved yes); made in house; host or cells: E. coli Rosetta 2 (DE3)

[1] = system: AsPC-1, SK-CO-1, NCI-H358 and NCI-H2122 cells; experiment: CellTiter-Glo 2.0 cell viability assay, KRAS mutant lines; format: cell-based; conditions: AsPC-1, SK-CO-1, NCI-H358, NCI-H2122; 120 h
Protocol: (§1) Prism software (GraphPad, San Diego, CA).
(§2) according to the manufacturer’s protoco l.
(§3) time of 0.15 second per well.
(§4) AMG510 was prepared internally from
(§5) Cells were cultured and seeded

[2] = system: extended cell panel incl. HEK293 cells; experiment: CellTiter-Glo cell viability assay (extended cell panel); format: cell-based
Description: Table S2: Cell culture conditions and seeding densities for 5-day CellTiter- Glo® cell viability assay on extended 1 6 cell panel.
Cell Line Vendor Catalog Description Complete g rowth m e d i um Seeding density […]
Capan-1 ATCC HTB-79 pancreas, adenocarcinoma IMDM+20%FBS 7 00
CFPAC-1 ATCC CRL-19 18 pancreas, ductal adenocarcinoma; cystic fibrosis IMDM+10%FBS 6 00 […]
MiaPaCa-2 ATCC CRL-14 20 pancreas, pancreatic Carcinoma DMEM+10%FBS 6 00 NCI-H358 ATCC CRL-58 07 lung, non-small cell lung cancer,bronchioalveolar RPMI1640+10%FBS […]
Panc 10.05 ATCC CRL-25 47 pancreas, adenocarcinoma RPMI1640 + 20 Units/ml human […]
SK-CO-1 ATCC HTB-39 colon, colorectal adenocarcinoma EMEM+10%FBS 3 00 […]
SW4 80 ATCC CCL-22 8 colon, adenocarcinoma Leibovitz's L-15
Prism software (GraphPad, San Diego, CA). […]
according to the manufacturer’s protoco l. […]
as §3, §4
Cells were cultured and seeded […]
the manufacturer’s protocol. […]
integration time of 0.1 second per well. […]
indicated peptides the next day.

[3] = system: pERK in KRAS^G12C, KRAS^G12V and KRAS^G12D cancer lines; experiment: Cellular phospho-ERK assay in panel of KRAS mutant cancer lines; format: cell-based
Protocol: For the latter, this included HEK293 cells (Fig. 4C), a cell line that has no dependency on RAS for cell proliferation.[21]
Ratio of pERK vs total ERK in
Penicillin/Streptomycin (Gibco 15140-122).
A375 cells were seeded at a
membranes were measured by LDH release assay.
according to manufacturer’s protocol.

A375 cells = experiment: CellTiter-Glo 2.0 cell viability assay, A375; format: cell-based; conditions: 120 h
Protocol: as §1, §2, §3, §4, §5

[4] = system: pERK and pAKT in AsPC-1 cells; experiment: Western blot of KRAS signaling (pERK, pAKT) in AsPC-1 cells; format: cell-based; conditions: 1 hour and 16 hour time-points
[5] = system: TNFα-stimulated NFκB signaling; experiment: Western blot of TNFα-stimulated NFκB signaling in AsPC-1 cells; format: cell-based
[6] = system: MAPK and PI3K signaling in SK-MEL-28 cells (BRAF^V600E); experiment: Western blot of MAPK and PI3K signaling in SK-MEL-28 cells; format: cell-based
[7] = system: MAPK and PI3K signaling in A375 cells (BRAF^V600E); experiment: Western blot of MAPK and PI3K signaling in A375 cells; format: cell-based
rat mast cells = experiment: Ex vivo rat mast cell degranulation and histamine release assay
EGF receptor activation = experiment: Western blot of EGF receptor activation in AsPC-1 cells; format: cell-based
[8] = system: A375 and SK-MEL-28 cells vs AsPC-1 cells; experiment: Live-cell fluorescence imaging of FAM-labelled peptides; format: cell-based; conditions: A375 and SK-MEL-28 compared to AsPC-1
[9] = system: pERK in NCI-H358 (heterozygous KRAS^G12C) cells; experiment: Cellular phospho-ERK assay in NCI-H358 cells with and without EGF; conditions: 20 nM EGF stimulation

With CC[C@H](C)[C@@H]1NC(=O)[C@H](Cc2ccc(O)cc2)NC(=O)[C@H](C)NC(=O)[C@@H]2CCCN2C(=O)[C@H](NC(=O)[C@H](CCCNC(=N)N)NC(=O)[C@H](CCCNC(=N)N)NC(C)=O)CSCSC[C@@H](C(=O)N[C@@H](CCCNC(=N)N)C(=O)N[C@@H](CCCNC(=N)N)C(N)=O)NC(=O)[C@H](C(C)C)NC(=O)[C@@H]2CCCN2C(=O)[C@H](CC(=O)O)NC(=O)[C@H](Cc2ccc(O)cc2)NC(=O)[C@H](CO)NC1=O [Compound 6] (Ac-RR[dC]PAYISYDPVCRR-NH2; linker 3-13 via CH2) the EC50 (GDP-loaded KRAS^G12D) was > 48.1 µM.

In the case of CC[C@H](C)[C@@H]1NC(=O)[C@H](Cc2ccc(O)cc2)NC(=O)[C@H](CC(C)C)NC(=O)[C@@H]2CCCN2C(=O)[C@H](NC(=O)[C@@H](CCCNC(=N)N)NC(=O)[C@@H](CCCNC(=N)N)NC(=O)[C@@H](CCCNC(=N)N)NC(=O)[C@@H](CCCNC(=N)N)NC(=O)[C@H](CCCCN=[N+]=[N-])NC(C)=O)CSCSC[C@@H](C(=O)N[C@H](CCCNC(=N)N)C(=O)N[C@H](CCCNC(=N)N)C(=O)N[C@H](CCCNC(=N)N)C(=O)N[C@H](CCCNC(=N)N)C(N)=O)NC(=O)[C@H](C(C)C)NC(=O)[C@@H]2CCCN2C(=O)[C@H](CC(=O)O)NC(=O)[C@H](Cc2ccc(O)cc2)NC(=O)[C@](C)(CO)NC1=O [MP-3995], the “inhibition of cell proliferation in KRAS mutant lines” value [1] is reported as “inhibitory effects on cell proliferation”, the “sensitivity of HEK293 cell proliferation” value ([2]; HEK293, no dependency on RAS) is reported as “insensitive” and the “number of KRAS mutant cell lines with inhibited proliferation” value ([2]; extended panel, 120 h) is reported as 8 out of 13. For the same molecule, the “pERK inhibition across KRAS mutant cancer lines” value [3] was “low micromolar range” and the “cell growth inhibition in A375” value (A375 cells) was “lack of cell growth inhibition”.

In the case of CC[C@H](C)[C@@H]1NC(=O)[C@H](Cc2ccc(O)cc2)NC(=O)[C@H](CC(C)C)NC(=O)[C@@H]2CCCN2C(=O)[C@H](NC(=O)[C@@H](CCCNC(=N)N)NC(=O)[C@@H](CCCNC(=N)N)NC(=O)[C@@H](CCCNC(=N)N)NC(=O)[C@@H](CCCNC(=N)N)NC(=O)[C@H](CCCCN=[N+]=[N-])NC(C)=O)CSCSC[C@@H](C(=O)N[C@H](CCCNC(=N)N)C(=O)N[C@H](CCCNC(=N)N)C(=O)N[C@H](CCCNC(=N)N)C(=O)N[C@H](CCCNC(=N)N)C(N)=O)NC(=O)[C@H](C(C)C)NC(=O)[C@@H]2CCCN2C(=O)[C@H](CC(=O)O)NC(=O)[C@H](Cc2ccc(O)cc2)NC(=O)[C@H](CO)NC1=O [MP-4090], the “inhibition of KRAS signaling (pERK, pAKT) by Western blot” value [4] is reported as “display cell-based inhibition”, the “effect on TNFα-stimulated NFκB signaling” value [5] is reported as “no effect” and the “inhibition of MAPK signaling in SK-MEL-28” value [6] is reported as “inactive”. For the same molecule, the “inhibition of MAPK signaling in A375” value [7] was “inactive”, the “activation of mast cell degranulation (histamine release), in words” value (rat mast cells; ex vivo, rat mast cells) was “highly potent activators of MCD” and the “rMCD histamine release threshold” value (rat mast cells; lowest concentration at which histamine release was observed, rat peritoneal mast cells, 30 min) was ≥0.14 µM. The “effect on upstream EGF receptor activation” value (EGF receptor activation) was “no effect”.

With CC[C@@H](C)[C@H]1NC(=O)[C@@H](Cc2ccc(O)cc2)NC(=O)[C@@H](CC(C)C)NC(=O)[C@H]2CCCN2C(=O)[C@H](NC(=O)[C@@H](CCCNC(=N)N)NC(=O)[C@@H](CCCNC(=N)N)NC(=O)[C@@H](CCCNC(=N)N)NC(=O)[C@@H](CCCNC(=N)N)NC(C)=O)CSCSC[C@H](C(=O)N[C@H](CCCNC(=N)N)C(=O)N[C@H](CCCNC(=N)N)C(=O)N[C@H](CCCNC(=N)N)C(=O)N[C@H](CCCNC(=N)N)C(N)=O)NC(=O)[C@@H](C(C)C)NC(=O)[C@H]2CCCN2C(=O)[C@@H](CC(=O)O)NC(=O)[C@@H](Cc2ccc(O)cc2)NC(=O)[C@@H](CO)NC1=O [MP-4956, Ac-rrrr-cyclo(c(methylene)plyisydpvc)-rrrr-NH2] the “inhibition of KRAS signaling (pERK, pAKT) by Western blot” value [4] was “showed no activity” and the “inhibition of cell proliferation in KRAS mutant lines” value [1] was “minimal inhibitory effects”.

CC[C@H](C)[C@@H]1NC(=O)[C@H](Cc2ccc(O)cc2)NC(=O)[C@H](CC(C)C)NC(=O)[C@@H]2CCCN2C(=O)[C@H](NC(=O)[C@@H](CCCNC(=N)N)NC(=O)[C@@H](CCCNC(=N)N)NC(=O)[C@@H](CCCNC(=N)N)NC(=O)[C@@H](CCCNC(=N)N)NC(=O)c2ccc3c(c2)C(=O)OC32c3ccc(O)cc3Oc3cc(O)ccc32)CSCSC[C@@H](C(=O)N[C@H](CCCNC(=N)N)C(=O)N[C@H](CCCNC(=N)N)C(=O)N[C@H](CCCNC(=N)N)C(=O)N[C@H](CCCNC(=N)N)C(N)=O)NC(=O)[C@H](C(C)C)NC(=O)[C@@H]2CCCN2C(=O)[C@H](CC(=O)O)NC(=O)[C@H](Cc2ccc(O)cc2)NC(=O)[C@H](CO)NC1=O [MP-8996] was tested, and the “cell entry of FAM-labeled peptide in BRAF mutant cells” value [8] was “roughly equivalent amounts compared to AsPC-1 cells”.

For C=CC(=O)N1CCN(c2nc(OC[C@@H]3CCCN3C)nc3c2CCN(c2cccc4cccc(C)c24)C3)C[C@@H]1CC#N [MRTX-1257], the “potency shift in pERK in the presence of EGF, NCI-H358” value [9] was 2 fold.
